Measured values published in patent US8334308B2, “Renin inhibitors” (Merck Sharp & Dohme Corp., priority 2007, dated 2012).

Legend:
[1] = target: T1, renin in human plasma (Homo sapiens, UniProt P00797); experiment: Inhibition of renin in human plasma (enzymatic in vitro assay, Ang I EIA); format: biochemical; conditions: human plasma from 10 normal donors, 37° C. 2 h
T1 construct: host or cells: recombinant renin of unstated origin added to human plasma from 10 normal donors
T1 sequence (P00797 67-406): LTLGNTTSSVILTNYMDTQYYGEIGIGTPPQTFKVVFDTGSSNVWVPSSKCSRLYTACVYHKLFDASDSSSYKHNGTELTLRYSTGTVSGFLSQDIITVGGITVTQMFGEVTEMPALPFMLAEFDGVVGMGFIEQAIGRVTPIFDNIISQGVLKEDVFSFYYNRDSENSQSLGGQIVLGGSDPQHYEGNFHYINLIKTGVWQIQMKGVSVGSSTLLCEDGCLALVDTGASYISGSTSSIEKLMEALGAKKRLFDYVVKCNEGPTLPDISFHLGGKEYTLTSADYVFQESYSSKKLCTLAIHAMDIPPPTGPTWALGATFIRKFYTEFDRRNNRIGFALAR
Experimental: Inhibition of Renin in Human Plasma
The enzymatic in vitro assay was performed in 384-well polypropylene plates (Nunc). The assay buffer consisted of PBS (Gibco BRL) including 1 mM EDTA and 0.1% BSA. The reaction mixture was composed of 80 μL, per well of human plasma, enzyme, Ang I-antibodiesmix and 5 μL of renin inhibitors in DMSO. The human plasma mix was premixed at 4° C. and consists of […]
human plasma from 10 normal donors human recombinant renin (3 μM)
The mixtures were then incubated at 37° C. for 2 h.
To determine the enzymatic activity and its inhibition, the accumulated Ang I was detected by an enzyme immunoassay (EIA) in 384-well plates (Nunc). 10 μL of the reaction mixture or standards were transferred to immuno plates which were previously coated with a covalent complex of Ang I and bovine serum albumin (Ang I-BSA). 70 μL assay buffer were added and the plates were incubated at 4° C. overnight.

[2] = target: T2, human recombinant renin (Homo sapiens, UniProt P00797); experiment: Inhibition of human recombinant renin (enzymatic in vitro assay, Ang I EIA); format: biochemical; conditions: human recombinant renin 40 pM, buffer, 37° C. 3 h
T2 sequence (P00797 67-406): T1 sequence (P00797 67-406)
Experimental: Inhibition of Human Recombinant Renin
The enzymatic in vitro assay was performed in 384-well polypropylene plates (Nunc). The assay buffer consisted of PBS (Gibco BRL) including 1 mM EDTA and 0.1% BSA. The reaction mixture were composed of 47.5 μL per well of an enzyme mix and 2.5 μL of renin inhibitors in DMSO. The enzyme mix was premixed at 4° C. and consists of the following components: […]
human recombinant renin (40 pM) synthetic human angiotensin(1-14) (0.5 μM) hydroxyquinoline sulfate (1 mM)
The mixtures were then incubated at 37° C. for 3 h. The enzyme reaction was stopped by placing the reaction plate on wet ice.
To determine the enzymatic activity and its inhibition, the accumulated Ang I was detected by an enzyme immunoassay (EIA) in 384-well plates (Nunc). 5 μL of the reaction mixture or standards were transferred to immuno plates which were previously coated with a covalent complex of Ang I and bovine serum albumin (Ang I-BSA). 75 μL of Ang I-antibodies in assay buffer above including 0.01% Tween 20 were added and the plates were incubated at 4° C. overnight.
An alternative protocol could be used by stopping the enzymatic reaction with 0.02N final concentration of HCl. 5 μL of the reaction mixture or standards were transferred to immuno plates and 75 μL of Ang I-antibodies in assay buffer above including 0.01% Tween 20 were added and the plates were incubate at RT for 4 h.

IC50 [1]	IC50 [2]	Structure (SMILES)
116 nM	0.4 nM	COCCCc1ccccc1-c1ccc(C(CN)Cc2ccc(OCCOc3c(Cl)cc(C)cc3Cl)cc2)c(C)c1 (stereo not drawn) [Example 3, 3-{4-[2-(2,6-dichloro-4-methylphenoxy)ethoxy]phenyl}-2-[2′-(3-methoxypropyl)-3-methylbiphenyl-4-yl]propan-1-amine]
1920 nM	19.7 nM	COCCc1ccccc1-c1ccc(C(CN)Cc2ccc(OCCOc3c(Cl)cc(C)cc3Cl)cc2)c(C)c1 (stereo not drawn) [Example 2, 3-{4-[2-(2,6-dichloro-4-methylphenoxy)ethoxy]phenyl}-2-[2′-(2-methoxyethyl)-3-methylbiphenyl-4-yl]propan-1-amine]
1150 nM	7 nM	Cc1cc(Cl)c(OCCOc2ccc(CC(CN)c3ccc(-c4ccccc4Cl)cc3F)cc2)c(Cl)c1 (stereo not drawn) [Example 7, 2-(2′-chloro-3-fluorobiphenyl-4-yl)-3-{4-[2-(2,6-dichloro-4-methylphenoxy)ethoxy]phenyl}propan-1-amine]
796 nM	6 nM	Cc1cc(Cl)c(OCCOc2ccc(CC(CN)c3ccc(-c4ccccc4Cl)cc3C)cc2)c(Cl)c1 (stereo not drawn) [Example 1, 2-(2′-Chloro-3-methyl-biphenyl-4-yl)-3-{4-[2-(2,6-dichloro-4-methyl-phenoxy)-ethoxy]-phenyl}-propylamine]
3620 nM	47.6 nM	COc1cc(-c2ccccc2Cl)ccc1C(CN)Cc1ccc(OCCOc2c(Cl)cc(C)cc2Cl)cc1 (stereo not drawn) [Example 8, 2-(2′-chloro-3-methoxybiphenyl-4-yl)-3-{4-[2-(2,6-dichloro-4-methylphenoxy)ethoxy]phenyl}propan-1-amine]
544 nM	10.6 nM	Cc1cc(Cl)c(OCCOc2ccc(CC(CN)c3ccc(-c4ccccc4CCC#N)cc3C)cc2)c(Cl)c1 (stereo not drawn) [Example 14, 3-[4′-(2-amino-1-{4-[2-(2,6-dichloro-4-methylphenoxy)ethoxy]benzyl}ethyl)-3′-methylbiphenyl-2-yl]propanenitrile]
9.6 nM		CC(=O)NCCc1ccccc1-c1ccc(C(CN)Cc2ccc(OCCOc3c(Cl)cc(C)cc3Cl)cc2)c(C)c1 (stereo not drawn) [Example 30, 2-{2′-[2-(acetylamino)ethyl]-3-methylbiphenyl-4-yl}-3-{4-[2-(2,6-dichloro-4-methylphenoxy)ethoxy]phenyl}propan-1-aminium chloride]
764 nM	0.5 nM	Cc1cc(Cl)c(OCCOc2ccc(CC(CN)c3ccc(-c4ccccc4Cl)cc3Cl)cc2)c(Cl)c1 (stereo not drawn) [Example 10, 2-(2′,3-dichlorobiphenyl-4-yl)-3-{4-[2-(2,6-dichloro-4-methylphenoxy)ethoxy]phenyl}propan-1-amine]
	44.4 nM	Cc1cc(Cl)c(OCCOc2ccc(CC(CN)c3ccc(-c4ccccc4Cl)cc3)cc2)c(Cl)c1 (stereo not drawn) [Example 6, 2-(2′-chlorobiphenyl-4-yl)-3-{4-[2-(2,6-dichloro-4-methylphenoxy)ethoxy]phenyl}propan-1-amine]
1500 nM	7.4 nM	COCCOc1ccccc1-c1ccc(C(CN)Cc2ccc(OCCOc3c(Cl)cc(C)cc3Cl)cc2)c(C)c1 (stereo not drawn) [Example 4, 3-{4-[2-(2,6-dichloro-4-methylphenoxy)ethoxy]phenyl}-2-[2′-(2-methoxyethoxy)-3-methylbiphenyl-4-yl]propan-1-amine]
2320 nM	16.3 nM	Cc1cc(Cl)c(OCCOc2ccc(CC(CN)c3ccc(-c4c(Cl)cccc4Cl)cc3C)cc2)c(Cl)c1 (stereo not drawn) [Example 39]

Continued, compound first:

Structure (SMILES)	IC50 [1]	IC50 [2]
COCCCc1cccc(C)c1-c1ccc(C(CN)Cc2ccc(OCCOc3c(Cl)cc(C)cc3Cl)cc2)c(C)c1 (stereo not drawn) [Example 12, 3-{4-[2-(2,6-dichloro-4-methylphenoxy)ethoxy]phenyl}-2-[2′-(3-methoxypropyl)-3,6′-dimethylbiphenyl-4-yl]propan-1-amine]	643 nM	0.2 nM
COCCCc1c(-c2ccc(C(CN)Cc3ccc(OCCOc4c(Cl)cc(C)cc4Cl)cc3)c(C)c2)ccc[n+]1[O-] (stereo not drawn) [Example 21, 3-{-4-[2-(2,6-dichloro-4-methylphenoxy)ethoxy]phenyl}-2-{4-[2-(3-methoxypropyl)-1-oxidopyridin-3-yl]-2-methylphenyl}propan-1-amine]	103 nM	4.3 nM
COCCCc1ccccc1-c1ccc(C(CN)Cc2cc(F)cc(F)c2)c(C)c1 (stereo not drawn) [Example 32, 3-(3,5-difluorophenyl)-2-[2′-(3-methoxypropyl)-3-methylbiphenyl-4-yl]propan-1-amine]	> 10000 nM	285 nM
COCCCOc1ccccc1-c1ccc(C(CN)Cc2ccc(OCCOc3c(Cl)cc(C)cc3Cl)cc2)c(C)c1 (stereo not drawn) [Example 5, 3-{4-[2-(2,6-dichloro-4-methylphenoxy)ethoxy]phenyl}-2-[2′-(3-methoxypropoxy)-3-methylbiphenyl-4-yl]propan-1-amine]	1160 nM	1.7 nM
Cc1cc(Cl)c(OCCOc2ccc(CC(CN)c3ccc(-c4ccccc4CCC(=O)N(C)C)cc3C)cc2)c(Cl)c1 (stereo not drawn) [Example 24, 3-[4′-(2-amino-1-{4-[2-(2,6-dichloro-4-methylphenoxy)ethoxy]benzyl}ethyl)-3′-methylbiphenyl-2-yl]-N—N-dimethylpropanamide]	> 1110 nM	30.8 nM
COCCCc1ccccc1-c1cc(C(F)(F)F)c(C(CN)Cc2ccc(OCCOc3c(Cl)cc(C)cc3Cl)cc2)cn1 (stereo not drawn) [Example 11, 3-{4-[2-(2,6-dichloro-4-methylphenoxy)ethoxy]phenyl}-2-[6-[2-(3-methoxypropyl)phenyl]-4-(trifluoromethyl)pyridin-3-yl]propan-1-amine]	21 nM	0.3 nM
COCCCc1ccccc1-c1ccc(C(CN)Cc2ccc(OCCOc3c(Cl)cc(C)cc3Cl)cc2)c(C(F)(F)F)c1 (stereo not drawn) [Example 13, 3-{4-[2-(2,6-dichloro-4-methylphenoxy)ethoxy]phenyl}-2-[2′-(3-methoxypropyl)-3-(trifluoromethyl)biphenyl-4-yl]propan-1-amine]	156 nM	0.9 nM
COCCCc1ncccc1-c1ccc(C(CN)Cc2ccc(OCCOc3c(Cl)cc(C)cc3Cl)cc2)c(C)c1 (stereo not drawn) [Example 16, 3-{4-[2-(2,6-dichloro-4-methylphenoxy)ethoxy]phenyl}-2-{4-[2-(3-methoxypropyl)pyridin-3-yl]-2-methylphenyl}propan-1-amine]	94.6 nM	1.1 nM
